This passage reports Control results from ChEMBL document CHEMBL1132829, “Synthesis of a statistically exhaustive fluorescent peptide substrate library for profiling protease specificity” (Bioorg Med Chem Lett, 2000).

Each structure is given as a SMILES string. Where a SMILES comes first, the peptide text is derived from it. [ ]: non-standard residue; d: D form. The star is where a group is joined. AMC = Cc1cc(=O)oc2cc(N*)ccc12; Cha = N[CH](CC1CCCCC1)C(=O)O; MeOSuc = COC(=O)CCC(=O)*; Orn = NCCC[C@H](N)C(=O)O; Cbz = O=C(OCc1ccccc1)*; Boc = CC(C)(C)OC(=O)*; Ms = CS(=O)(=O)*

One test deals with Urokinase-type plasminogen activator (Homo sapiens) (UniProt P00749). Kind of test: Compound was evaluated for its inhibitory activity against urokinase at 100 uM concentration of substrate. Also noted: scale not given: the % may be the effect or the level left.
In turn, `CC(=O)N[C@@H](Cc1ccccc1)C(=O)N[C@@H](C)C(=O)N[C@@H](CCCN=C(N)N)C(=O)Nc1ccc2c(C)cc(=O)oc2c1` (Ac-Phe-Ala-Arg-{AMC}) gave a Control of 2%.
On the same count and under the same terms, the result for `CC(=O)NC(Cc1ccccc1)C(=O)NCC(=O)NC(CCCN=C(N)N)C(=O)Nc1ccc2c(C)cc(=O)oc2c1` (stereo not drawn) (Ac-Phe-Gly-Arg-{AMC}; configuration not given here) reads 3.9%.
On the same count and under the same terms, the result for `CC(=O)N[C@@H](Cc1ccccc1)C(=O)N[C@@H](CO)C(=O)N[C@@H](CCCN=C(N)N)C(=O)Nc1ccc2c(C)cc(=O)oc2c1` (Ac-Phe-Ser-Arg-{AMC}) reads 4.2%.
The compound `Cc1cc(=O)oc2cc(NC(=O)C(CCCN=C(N)N)NC(=O)CNC(=O)C(N)CCC(=O)O)ccc12` (stereo not drawn) (H-Glu-Gly-Arg-{AMC}; configuration not given here) came in with a Control of 100%.

In the next test the target is Coagulation factor X (Homo sapiens) (UniProt P00742). Kind of test: Compound was evaluated for its inhibitory activity against Coagulation factor X at 100 uM concentration of substrate. More on the design: scale not given: the % may be the effect or the level left.
Coagulation factor X (Homo sapiens), sequence (P00742 41-179 limits assumed): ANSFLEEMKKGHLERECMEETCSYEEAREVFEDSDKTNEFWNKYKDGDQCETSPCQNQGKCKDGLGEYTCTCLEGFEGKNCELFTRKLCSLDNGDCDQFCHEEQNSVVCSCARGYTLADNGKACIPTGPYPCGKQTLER
Coagulation factor X (Homo sapiens), sequence (P00742 235-488 limits assumed): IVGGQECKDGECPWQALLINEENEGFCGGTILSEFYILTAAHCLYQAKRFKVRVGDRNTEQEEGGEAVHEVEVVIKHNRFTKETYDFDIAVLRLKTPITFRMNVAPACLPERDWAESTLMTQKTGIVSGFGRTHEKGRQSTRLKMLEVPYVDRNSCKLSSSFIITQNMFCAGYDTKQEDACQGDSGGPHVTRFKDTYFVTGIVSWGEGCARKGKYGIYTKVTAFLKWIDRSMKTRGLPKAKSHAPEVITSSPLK
Compound `CC(=O)N[C@@H](Cc1ccccc1)C(=O)N[C@@H](Cc1ccc(O)cc1)C(=O)N[C@@H](CCCN=C(N)N)C(=O)Nc1ccc2c(C)cc(=O)oc2c1` (Ac-Phe-Tyr-Arg-{AMC}) gave a Control of 1.1%.
Compound `Cc1cc(=O)oc2cc(NC(=O)C(CCCN=C(N)N)NC(=O)CNC(=O)C(CC3CCCCC3)NS(C)(=O)=O)ccc12` (stereo not drawn) (Ms-[Cha]-Gly-Arg-{AMC}; configuration not given here) had a Control of 100%.

A further test deals with T1, Neutrophil elastase (Homo sapiens) (UniProt P08246).
T1 sequence (whole entry): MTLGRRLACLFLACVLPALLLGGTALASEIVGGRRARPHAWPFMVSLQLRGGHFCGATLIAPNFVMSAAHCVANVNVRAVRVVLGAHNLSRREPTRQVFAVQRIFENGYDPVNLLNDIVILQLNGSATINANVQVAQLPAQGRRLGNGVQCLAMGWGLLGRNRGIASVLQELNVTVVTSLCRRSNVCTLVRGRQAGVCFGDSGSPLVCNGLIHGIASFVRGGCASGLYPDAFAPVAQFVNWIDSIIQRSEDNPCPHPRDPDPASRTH
Kind of test: Compound was evaluated for its inhibitory activity against elastase at 100 uM concentration of substrate. Also noted: scale not given: the % may be the effect or the level left.
`CC(=O)N[C@@H](Cc1ccccc1)C(=O)N[C@@H](CCC(=O)O)C(=O)N[C@H](C(=O)Nc1ccc2c(C)cc(=O)oc2c1)C(C)C` (Ac-Phe-Glu-Val-{AMC}) registered a Control of 1%.
In turn, `CC(=O)N[C@@H](Cc1ccccc1)C(=O)N1CCC[C@H]1C(=O)N[C@@H](C)C(=O)Nc1ccc2c(C)cc(=O)oc2c1` (Ac-Phe-Pro-Ala-{AMC}) yielded a Control of 0.8%.
On to `CC(=O)N[C@@H](Cc1ccccc1)C(=O)N1CCC[C@H]1C(=O)N[C@H](C(=O)Nc1ccc2c(C)cc(=O)oc2c1)C(C)C` (Ac-Phe-Pro-Val-{AMC}), for which the Control came to 11%.
Turning to `CC(=O)N[C@@H](Cc1ccccc1)C(=O)N[C@H](C(=O)N[C@H](C(=O)Nc1ccc2c(C)cc(=O)oc2c1)C(C)C)[C@@H](C)O` (Ac-Phe-Thr-Val-{AMC}), the Control was found to be 1.6%.
In turn, `COC(=O)CCC(=O)N[C@@H](C)C(=O)N[C@@H](C)C(=O)N1CCC[C@H]1C(=O)N[C@H](C(=O)Nc1ccc2c(C)cc(=O)oc2c1)C(C)C` (MeOSuc-AAPV-{AMC}) had a Control of 100%.

The target in a further test is Prothrombin (Homo sapiens) (UniProt P00734). The test can be described thus: Compound was evaluated for its inhibitory activity against thrombin at 100 uM concentration of substrate. More on the design: scale not given: the % may be the effect or the level left.
`CC(=O)N[C@@H](Cc1ccccc1)C(=O)N1CCC[C@H]1C(=O)NC(CCCN=C(N)N)C(=O)Nc1ccc2c(C)cc(=O)oc2c1` (stereo partly specified) displayed a Control of 5.4%.
In turn, `Cc1cc(=O)oc2cc(NC(=O)[C@H](CCCN=C(N)N)NC(=O)[C@@H]3CCCN3C(=O)CNC(=O)OCc3ccccc3)ccc12` (Cbz-Gly-Pro-Arg-{AMC}) returned a Control of 100%.

Another test addresses Cathepsin B (Homo sapiens) (UniProt P07858). The test can be described thus: Compound was evaluated for its inhibitory activity against cathepsin B at 100 uM concentration of substrate. Also noted: scale not given: the % may be the effect or the level left.
Consider `CC(=O)N[C@@H](Cc1ccccc1)C(=O)N[C@@H](CCCN=C(N)N)C(=O)N[C@@H](CCCN=C(N)N)C(=O)Nc1ccc2c(C)cc(=O)oc2c1` (Ac-Phe-Arg-Arg-{AMC}), for which the Control amounted to 46%.
`CC(=O)N[C@@H](Cc1ccccc1)C(=O)N[C@@H](CCCN=C(N)N)C(=O)N[C@@H](CCCCN)C(=O)Nc1ccc2c(C)cc(=O)oc2c1` (Ac-Phe-Arg-Lys-{AMC}) returned a Control of 37%.
`CC(=O)N[C@@H](Cc1ccccc1)C(=O)N[C@@H](CCCCN)C(=O)N[C@@H](CCCN=C(N)N)C(=O)Nc1ccc2c(C)cc(=O)oc2c1` (Ac-Phe-Lys-Arg-{AMC}) gave a Control of 43%.
On the same count and under the same terms, the result for `CSCC[C@H](NC(=O)[C@H](Cc1ccccc1)NC(C)=O)C(=O)N[C@@H](CCCCN)C(=O)Nc1ccc2c(C)cc(=O)oc2c1` (Ac-Phe-Met-Lys-{AMC}) reads 18%; that for `CC(=O)N[C@@H](Cc1ccccc1)C(=O)N[C@H](C(=O)N[C@@H](CCCCN)C(=O)Nc1ccc2c(C)cc(=O)oc2c1)C(C)C` (Ac-Phe-Val-Lys-{AMC}), 23%; that for `CC(=O)N[C@@H](Cc1ccccc1)C(=O)N[C@@H](CCCN)C(=O)N[C@@H](CCCN=C(N)N)C(=O)Nc1ccc2c(C)cc(=O)oc2c1` (Ac-Phe-[Orn]-Arg-{AMC}), 18%.
For the compound `CC(=O)N[C@@H](Cc1ccccc1)C(=O)N[C@@H](CCCN)C(=O)N[C@@H](CCCCN)C(=O)Nc1ccc2c(C)cc(=O)oc2c1` (Ac-Phe-[Orn]-Lys-{AMC}), the Control amounted to 21%.
Compound `Cc1cc(=O)oc2cc(NC(=O)[C@H](CCCN=C(N)N)NC(=O)[C@H](CCCCN)NC(=O)[C@H](CC(C)C)NC(=O)OC(C)(C)C)ccc12` (Boc-Leu-Lys-Arg-{AMC}) returned a Control of 100%.
